Results published in the supplement of paper PMC10307832.

What was measured:
Test in all cases: relative viability (nuclei count vs DMSO), 5 days (fraction); higher = more cells survive
[1] = compound: NCC(=O)Nc1ccc(-n2nc(C(F)(F)F)cc2-c2ccc3c(ccc4ccccc43)c2)cc1 + C[C@@H](Oc1cc(-c2cnn(C3CCNCC3)c2)cnc1N)c1c(Cl)ccc(F)c1Cl [Crizotinib] (partner 1 µM)
Outline: (§1)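 Dosing by pin tool came one day after lung cancer cell lines were seeded in 1536-well plates, using either one drug or a fixed anchor-drug dose plus five library-drug doses (not always all listed) in √10 steps. After 5 days, nuclei were counted on 4× images. Relative viability is treated-well nuclei count divided by vehicle-well nuclei count, and values are medians of duplicate plates.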

[2] = compound: C1CSC2=C(C(=O)N1)SC3=C2C=C(C=C3)O [kb NB 142-70] + NC(=O)Nc1cc(-c2cccc(F)c2)sc1C(=O)N[C@H]1CCCNC1 [AZD7762] (partner 0.2 µM)
Outline: as §1

[3] = compound: NCC(=O)Nc1ccc(-n2nc(C(F)(F)F)cc2-c2ccc3c(ccc4ccccc43)c2)cc1 + Cc1nc(NC(=O)N2CCC[C@H]2C(N)=O)sc1-c1ccnc(C(C)(C)C(F)(F)F)c1 [Alpelisib] (partner 2 µM)
Outline: as §1

[4] = compound: C1CSC2=C(C(=O)N1)SC3=C2C=C(C=C3)O [kb NB 142-70] + O=C(CCCCCCC(=O)Nc1ccccc1)NO [Vorinostat] (partner 1 µM)
Outline: as §1

Row | Cell Line | relative viability ([1]; first compound 0.02 µM) | relative viability ([1]; first compound 0.06325 µM) | relative viability ([1]; first compound 0.2 µM) | relative viability ([1]; first compound 0.6325 µM) | relative viability ([1]; first compound 2 µM) | relative viability ([2]; first compound 0.1 µM) | relative viability ([2]; first compound 1 µM) | relative viability ([2]; first compound 3.162 µM) | relative viability ([3]; first compound 0.02 µM) | relative viability ([3]; first compound 0.06325 µM) | relative viability ([3]; first compound 0.2 µM) | relative viability ([3]; first compound 0.6325 µM) | relative viability ([3]; first compound 2 µM) | relative viability ([4]; first compound 0.1 µM) | relative viability ([4]; first compound 1 µM) | relative viability ([4]; first compound 3.162 µM)
1 | 201T | 1.02 | 1.02 | 1.01 | 1.03 | 0.984 | 0.603 | 0.723 | 0.676 | 1.08 | 1.05 | 1.04 | 1 | 1.05 | 0.943 | 1.02 | 1.06
2 | A549 | 0.762 | 0.755 | 0.774 | 0.767 | 0.826 | – | – | – | 0.714 | 0.84 | 0.898 | 0.747 | 0.657 | – | – | –
3 | A-427 | 0.87 | 0.848 | 1.04 | 0.935 | 0.865 | 0.783 | 0.93 | 1.08 | 1.05 | 1.09 | 1.14 | 1.14 | 1.05 | 0.864 | 0.969 | 0.932
4 | ABC-1 | 1.33 | 1.77 | – | 1.04 | 0.992 | 0.936 | 0.927 | 0.758 | 0.955 | 0.88 | – | 1.06 | 1.14 | 1.13 | 0.975 | 0.453
5 | BEN | 0.923 | 0.997 | 0.837 | 0.965 | 0.9 | 0.727 | 0.623 | 0.531 | 1.04 | 1.06 | 1.1 | 1.05 | 1.06 | 0.553 | 0.585 | 0.573
6 | CAL-12T | 0.682 | 0.73 | 0.591 | 0.716 | 0.722 | 0.548 | 0.718 | 0.704 | 1.2 | 1.27 | 1.34 | 1.03 | 1.03 | 0.767 | 0.663 | 0.564
7 | COR-L23 | 0.825 | 0.638 | 0.823 | 0.703 | 0.631 | – | – | – | 0.895 | 0.822 | 0.898 | 0.722 | 0.745 | 0.515 | 0.428 | 0.214
8 | COR-L 105 | 0.873 | 0.765 | 0.803 | 0.845 | 1.06 | – | – | – | 0.911 | 1.12 | 1.26 | 0.896 | 0.969 | 0.812 | 0.831 | 0.776
9 | Calu-6 | 0.862 | 0.854 | 0.853 | 0.838 | 0.774 | – | – | – | 1.05 | 1.07 | 1.15 | 0.943 | 0.913 | – | – | –
10 | ChaGo-K-1 | 1.14 | 1.08 | 1.01 | 1.05 | 1.03 | 0.896 | 0.873 | 0.888 | – | – | – | – | – | 0.815 | 0.813 | 0.7
11 | EBC-1 | 0.178 | 0.236 | 0.204 | 0.198 | 0.25 | – | – | – | 0.785 | 0.785 | 0.962 | 0.835 | 0.834 | – | – | –
12 | EKVX | 1.2 | 0.973 | 0.896 | 1.06 | 0.868 | 0.739 | 0.704 | 0.684 | 0.939 | 0.809 | 0.924 | 0.927 | 1.01 | 0.677 | 0.481 | 0.814
